Test results as given in US7781421B2, “Neuroactive 13, 24-cyclo-18, 21-dinorcholanes and structurally related pentacyclic steriods” (Washington University, priority 2003, dated 2010).

Assays:
Xenopus laevis tadpoles = experiment: Tadpole loss of righting (LRR) and swimming (LSR) reflexes; type: in vivo; conditions: 3 h equilibration at room temperature; for EC50: Xenopus laevis, 3 h, read-out: LSR EC50 (loss of swimming response)
Method: Tadpole LRR was measured as described previously. (See, Wittmer, L. L., et al., Enantioselectivity of steroid-induced γ-aminobutyric acidA receptor modulation and anesthesia, Mol. Phar., 1996, 50:1581-1586). Briefly, groups of 10 early prelimb-bud stage Xenopus laevis tadpoles (Nasco, Fort Atkinson, Wis.) were placed in 100 mL of oxygenated Ringer's stock solution containing various concentrations of compound. Compounds were added from a 10 mM DMSO stock (final concentration of DMSO in test solutions ≦0.1%). After equilibrating at room temperature for 3 h, tadpoles were evaluated using the LRR and LSR behavioral endpoints. LRR was defined as failure of the tadpole to right itself within 5 sec after being flipped by a smooth glass rod. LSR was defined as failure of the tadpole to swim when touched by a smooth glass rod. In general, the tadpoles regained their righting and swimming reflexes when placed in fresh oxygenated Ringer's solution. Control beakers containing up to 0.6% DMSO produced no LRR or LSR in tadpoles.
Tadpole LRR and LSR concentration-response curves were fit using Sigma Plot version 3.0 to the Hill equation f=Rmax/{1+([conc]/EC50)^n}
where Rmax is the maximum effect, [conc] is the steroid concentration, EC50 is the half-maximal effective concentration, and n is the Hill coefficient.

[1] = target: T1, rat α1β2γ2 GABAA Receptor (Rattus norvegicus, UniProt P18508+P62813+P63138, INS375LLRMFSFK); experiment: Xenopus oocyte two-electrode voltage-clamp electrophysiology; type: cell-based; conditions: for Oocyte electrophysiology, ratio of currents in presence/absence of compound, 0.1 μM: 0.1 μM compound co-applied with 2 μM GABA; for Oocyte electrophysiology, ratio of currents in presence/absence of compound, 0.1 μM / Oocyte electrophysiology, ratio of currents in presence/absence of compound, 1 μM / Oocyte electrophysiology, ratio of currents in presence/absence of compound, 10 μM: −70 mV; for Oocyte electrophysiology, ratio of currents in presence/absence of compound, 1 μM: 1 μM compound co-applied with 2 μM GABA; for Gating (10 μM), ratio of compound only current/2 μM GABA current: direct current gated by 10 μM compound in the absence of GABA; for Oocyte electrophysiology, ratio of currents in presence/absence of compound, 10 μM: 10 μM compound co-applied with 2 μM GABA
T1 construct: from linearized pBluescript vectors containing receptor coding regions; expressed in transfected cells; host or cells: Xenopus laevis oocytes injected with in vitro transcribed capped mRNA
T1 sequence (P62813 28-455, stated change not applied): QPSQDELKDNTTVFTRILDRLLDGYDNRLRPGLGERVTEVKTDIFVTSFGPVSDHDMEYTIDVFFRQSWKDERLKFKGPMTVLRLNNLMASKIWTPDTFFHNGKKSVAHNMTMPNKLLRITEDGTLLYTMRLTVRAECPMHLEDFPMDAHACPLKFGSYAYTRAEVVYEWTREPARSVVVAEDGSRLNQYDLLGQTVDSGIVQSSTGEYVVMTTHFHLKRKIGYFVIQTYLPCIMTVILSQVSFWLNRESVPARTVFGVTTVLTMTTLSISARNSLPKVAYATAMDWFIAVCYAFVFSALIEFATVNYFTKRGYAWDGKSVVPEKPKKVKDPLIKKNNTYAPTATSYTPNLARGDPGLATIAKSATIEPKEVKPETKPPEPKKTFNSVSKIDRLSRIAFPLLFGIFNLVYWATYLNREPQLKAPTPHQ
T1 sequence (P63138 26-474, stated change not applied): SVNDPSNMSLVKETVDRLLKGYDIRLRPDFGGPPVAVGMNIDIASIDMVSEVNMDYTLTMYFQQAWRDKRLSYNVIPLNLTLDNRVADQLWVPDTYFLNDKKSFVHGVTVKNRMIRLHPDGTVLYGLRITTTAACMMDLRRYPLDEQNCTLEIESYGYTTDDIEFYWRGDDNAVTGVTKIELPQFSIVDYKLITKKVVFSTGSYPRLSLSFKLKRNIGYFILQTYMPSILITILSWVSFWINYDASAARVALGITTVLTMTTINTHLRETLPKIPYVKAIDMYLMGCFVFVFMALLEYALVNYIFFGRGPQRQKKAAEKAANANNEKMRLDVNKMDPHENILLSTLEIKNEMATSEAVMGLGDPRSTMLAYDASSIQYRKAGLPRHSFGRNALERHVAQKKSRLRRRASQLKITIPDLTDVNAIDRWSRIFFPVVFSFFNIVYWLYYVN
T1 sequence (P18508 with tags, fused parts or gaps INS375LLRMFSFK): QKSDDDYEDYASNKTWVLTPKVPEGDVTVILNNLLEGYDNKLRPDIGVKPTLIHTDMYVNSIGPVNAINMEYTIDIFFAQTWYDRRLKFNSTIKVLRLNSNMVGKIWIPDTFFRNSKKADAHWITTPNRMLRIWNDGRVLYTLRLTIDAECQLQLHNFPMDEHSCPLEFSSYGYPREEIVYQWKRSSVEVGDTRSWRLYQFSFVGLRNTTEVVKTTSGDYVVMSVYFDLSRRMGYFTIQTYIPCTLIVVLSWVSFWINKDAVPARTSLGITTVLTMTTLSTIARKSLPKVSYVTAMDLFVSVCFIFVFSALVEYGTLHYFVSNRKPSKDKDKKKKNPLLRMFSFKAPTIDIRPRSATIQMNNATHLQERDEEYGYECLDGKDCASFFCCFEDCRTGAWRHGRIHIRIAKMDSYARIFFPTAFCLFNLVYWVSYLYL
Method: Stage V-VI oocytes were harvested from sexually mature female Xenopus laevis (Xenopus One, Northland, Mich.) under 0.1% tricaine (3-aminobenzoic acid ethyl ester) anesthesia. Oocytes were defolliculated by shaking for 20 min at 37° C. in collagenase (2 mg/ml) dissolved in calcium-free solution containing (in mM): 96 NaCl, 2 KCl, 1 MgCl2, and 5 HEPES at pH 7.4. Capped mRNA, encoding rat GABAA receptor α1, β2 and γ2L subunits was transcribed in vitro using the mMESSAGE mMachine Kit (Ambion, Austin, Tex.) from linearized pBluescript vectors containing receptor coding regions. Subunit transcripts were injected in equal parts (20-40 ng total RNA) 8-24 hours following defolliculation. Oocytes were incubated up to 5 days at 18° C. in ND96 medium containing (in mM): 96 NaCl, 1 KCl, 1 MgCl2, 2 CaCl2 and 5 HEPES at pH 7.4, supplemented with pyruvate (5 mM), penicillin (100 U/ml), streptomycin (100 μg/ml) and gentamycin (50 μg/ml). The cDNAs for the rat GABAA-receptor subunits were originally provided by A. Tobin, University of California, Los Angels (α1), P. Malherbe, Hoffman-La Roche, Switzerland (β2), C. Fraser, National Institute on Alcohol Abuse and Alcoholism (γ2L).
Two-electrode voltage-clamp experiments were performed with a Warner OC725 amplifier 2-5 days following RNA injection. The extracellular recording solution was ND96 medium with no supplements. Intracellular recording pipettes were filled with 3 M KCl and had open tip resistances of ˜1 MΩ. Drugs were applied from a common tip via a gravity-driven multibarrel drug-delivery system. Steroids were simultaneously co-applied with GABA. Cells were clamped at −70 mV for all experiments, and peak current during 20 s drug applications was measured. Data acquisition and analysis were performed with pCLAMP software (Axon Instruments, California). Statistical differences were determined using a two-tailed Student's t-test.
The GABA concentration used for the control response was 2 μM. Each compound was evaluated on at least four different oocytes at the concentrations indicated, and the results reported are the ratio of the currents measured in the presence/absence of added compound. (G) represents direct current gated by 10 μM compound in the absence of GABA, and this current is reported as the ratio of compound only current/2 μM GABA current. Error limits are calculated as standard error of the means.

[2] = target: GABAA receptor ([35S]-TBPS binding site, rat brain cortical membranes); experiment: Displacement of [35S]-TBPS binding, rat brain cortical membranes; conditions: 5 μM GABA, 2 nM [35S]-TBPS; ± standard error of the means
Method: Rat brain cortical membranes were prepared with minor modifications of the method previously reported. (Hawkinson, J. E., et al., Correlation of Neuroactive Steroid Modulation of [^35S]t-Butylbicyclophosophorothionate and [^3H]Flunitrazepam Binding and γ-Aminobutyric AcidA Receptor Function, Mol. Pharmacol., 1994, 46, 977-985). Briefly, frozen rat cerebral cortices (Pel-freez, Rogers, Ak.) were thawed and homogenized in 10 volumes of ice-cold 0.32 M sucrose using a glass/Teflon pestle. The homogenate was centrifuged at 1500×g for 10 min at 4° C. The resultant supernatant was centrifuged at 10,000×g for 30 min at 4° C. The pellet (P2) from this centrifugation was resuspended in 200 mM NaCl, 50 mM potassium phosphate buffer, pH 7.4, and centrifuged at 10,000×g for 20 min at 4° C. This washing procedure was done a total of three times, and then pellets were resuspended in buffer (˜4 mL/brain) using a glass/Teflon pestle. The membrane suspension was aliquoted, frozen in liquid nitrogen, and stored at −80° C. prior to use.
[^35S]-TBPS Binding assays were done according to the procedure described previously (Hawkinson, J. E., et al., Correlation of Neuroactive Steroid Modulation of [^35S]t-Butylbicyclophosophorothionate and [^3H]Flunitrazepam Binding and γ-Aminobutyric AcidA Receptor Function, Mol. Pharmacol., 1994, 46, 977-985) with modifications. Briefly, aliquots of membrane solution (0.5 mg/mL final protein concentration in assay) were incubated with 5 μM GABA, 2 nM [^35S]-TBPS (45-120 Ci/mmol), and 5 μL aliquots of steroid in DMSO solution (final assay concentrations ranged from 1 nM to 10 μM), and brought to a final volume of 1 mL with 200 mM NaCl, 50 mM potassium phosphate buffer, pH 7.4. […] Assay tubes were incubated for 2 hr at room temperature. A Brandel (Gaithersburg, Md.) cell harvester was used for filtration of the assay tubes through Whatman/GF/C glass filter paper. Filter paper was rinsed with 4 mL of ice-cold buffer three times. Radioactivity bound to the filters was read by liquid scintillation counter and data was fit using Sigma Plot version 3.0 to the Hill equation i. f=Rmax/{1+([conc]/IC50)^n}
Where Rmax is the maximal effect, [conc] is steroid concentration, IC50 is the half-maximal inhibitor concentration and n is the Hill coefficient. Each data point was determined in triplicate and 2-3 full concentration-response curves were generated for each steroid.

SMILES	LRR ED50 (loss of righting response) (Xenopus laevis tadpoles)	EC50 (Xenopus laevis tadpoles) [nM]	Oocyte electrophysiology, ratio of currents in presence/absence of compound, 0.1 μM [1]	Oocyte electrophysiology, ratio of currents in presence/absence of compound, 1 μM [1]	Gating (10 μM), ratio of compound only current/2 μM GABA current [1]	IC50 [2] [nM]	melting point [°C]	Oocyte electrophysiology, ratio of currents in presence/absence of compound, 10 μM [1]	LSR EC50 (loss of swimming response) (Xenopus laevis tadpoles)	Reversibility of steroid effect on GABA current (FIG. 1A) ([1]; 500 nM compound, 2 μM GABA, GABA recovery panel)
C[C@]12CC[C@@H](O)C[C@@H]1CCC1C3CC[C@@H]4C(=O)CCC[C@]34CCC12 (stereo partly drawn) [Compound 2a, (3α,5α)-3-Hydroxy-13,24-cyclo-18,21-dinorcholan-20-one]	1360 ± 200 nM	5450 ± 70	1.01 ± 0.03	1.44 ± 0.03	0 ± 0.1	514 ± 64	200 to 202			
CC12CCC(O)CC1CCC1C2CCC23C=C(Br)C(=O)C2CCC13 (stereo not drawn) [Compound 95, (3α,5α)-21-bromo-3-hydroxy-18,21-cyclopregn-18(21)-en-20-one]	290 ± 40 nM	550 ± 90	1.25 ± 0.08	1.99 ± 0.20	0.02 ± 0.02	94 ± 17	220 to 222.5	8.75 ± 1.92		
C[C@]12CC[C@@H](O)C[C@@H]1CCC1C3CC[C@@H]4[C@H]5O[C@H]5CC[C@]34CCC12 (stereo partly drawn) [Compound 71, (3α,5α,20R,22S)-20,22-Epoxy-13,24-cyclo-18,21-dinorcholan-3-ol]	None @ 10		0.90 ± 0.05	1.05 ± 0.09	0.00 ± 0.00	596 ± 71	206 to 208	1.94 ± 0.23	None @ 10	
CC12CCC(O)CC1CCC1C2CCC23CCC(=O)CC2CCC13 (stereo not drawn) [Compound 3b, (3α,5β)-3-Hydroxy-13,24-cyclo-18,21-dinorcholan-22-one]	2470 ± 530 nM	9430 ± 60	0.97 ± 0.01	1.11 ± 0.14	−0.10 ± 0.06	3230	175 to 177	2.65 ± 0.33		
CC(=O)[C@H]1CC[C@H]2[C@@H]3CC[C@H]4C[C@H](O)CC[C@]4(C)[C@H]3CC[C@]12C [Compound 1a, (3α,5α)-3-Hydroxypregnan-20-one, reference compound]	420 ± 40 nM	5500 ± 480								readily reversible
C=C1CC[C@]23CCC4C(CC[C@H]5C[C@H](O)CC[C@]45C)C2CC[C@@H]3C1 (stereo partly drawn) [Compound 53, (3α,5α)-22-Methylene-13,24-cyclo-18,21-dinorcholan-3-ol]						107000 ± 29600	187 to 188	1.05 ± 0.04		
